ChEMBL document CHEMBL1201862, “PubChem BioAssay data set” (2004)
Activity calls are given as the source filed them.

What was measured:
[1] = tested on: INS1; test: INS-1E survival protection against cytokine death – cell-based, luminescence, retest, dose response (AID 449756); format: functional; details: Rattus norvegicus;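 further: cell death triggered by IL-1 beta plus TNF-alpha plus IFN-gamma mixture; protective hits raise ATP signal compared with cytokine alone wells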
[2] = target: T1, Replicative DNA helicase DnaB (Mycobacterium tuberculosis, UniProt P9WMR3); test: DnaB intein splicing inhibitors, dose response, biochemical, cell-free fluorescence (AID 449749); format: functional
T1 sequence (P9WMR3 whole entry): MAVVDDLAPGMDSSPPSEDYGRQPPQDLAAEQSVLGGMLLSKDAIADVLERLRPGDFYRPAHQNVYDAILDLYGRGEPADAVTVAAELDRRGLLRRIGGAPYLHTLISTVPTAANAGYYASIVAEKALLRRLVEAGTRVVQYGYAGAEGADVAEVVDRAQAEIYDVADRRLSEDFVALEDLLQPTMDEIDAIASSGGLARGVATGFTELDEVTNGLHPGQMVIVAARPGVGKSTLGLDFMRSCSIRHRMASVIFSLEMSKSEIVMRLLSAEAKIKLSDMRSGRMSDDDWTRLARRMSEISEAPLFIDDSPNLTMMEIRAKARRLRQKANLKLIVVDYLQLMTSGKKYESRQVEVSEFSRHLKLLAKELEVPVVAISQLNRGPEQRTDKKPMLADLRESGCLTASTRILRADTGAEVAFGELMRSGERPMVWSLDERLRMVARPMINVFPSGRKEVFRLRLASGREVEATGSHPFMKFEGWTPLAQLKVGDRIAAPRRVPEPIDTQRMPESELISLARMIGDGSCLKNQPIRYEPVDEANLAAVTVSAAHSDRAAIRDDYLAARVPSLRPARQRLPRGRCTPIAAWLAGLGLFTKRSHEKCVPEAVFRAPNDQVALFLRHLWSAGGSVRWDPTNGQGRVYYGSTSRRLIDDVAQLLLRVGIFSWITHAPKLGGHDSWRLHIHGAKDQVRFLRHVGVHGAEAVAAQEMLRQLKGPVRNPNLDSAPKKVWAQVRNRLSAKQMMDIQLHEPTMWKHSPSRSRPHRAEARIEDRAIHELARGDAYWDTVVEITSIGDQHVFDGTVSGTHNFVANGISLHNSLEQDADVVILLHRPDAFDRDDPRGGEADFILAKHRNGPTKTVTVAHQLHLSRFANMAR

[3] = target: T2, Sentrin-specific protease 8 (Homo sapiens, UniProt Q96LD8); format: functional;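 further: luminescence read-out of SENP8 inhibition, dose-response confirmation following an ultra-high-throughput screen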
T2 sequence (Q96LD8 whole entry): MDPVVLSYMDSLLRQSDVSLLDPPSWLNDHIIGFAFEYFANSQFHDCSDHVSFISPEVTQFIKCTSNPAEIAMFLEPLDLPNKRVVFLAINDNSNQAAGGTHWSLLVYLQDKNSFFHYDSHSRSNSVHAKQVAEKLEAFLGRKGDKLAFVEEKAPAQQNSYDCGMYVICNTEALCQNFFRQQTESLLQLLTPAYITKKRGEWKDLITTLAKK

[4] = target: T3, Sentrin-specific protease 6 (Homo sapiens, UniProt Q9GZR1); format: functional;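 further: Luminescence-based dose-response confirmatory assay of SENP6 inhibition, following up an ultra-high-throughput screen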
T3 sequence (Q9GZR1 whole entry): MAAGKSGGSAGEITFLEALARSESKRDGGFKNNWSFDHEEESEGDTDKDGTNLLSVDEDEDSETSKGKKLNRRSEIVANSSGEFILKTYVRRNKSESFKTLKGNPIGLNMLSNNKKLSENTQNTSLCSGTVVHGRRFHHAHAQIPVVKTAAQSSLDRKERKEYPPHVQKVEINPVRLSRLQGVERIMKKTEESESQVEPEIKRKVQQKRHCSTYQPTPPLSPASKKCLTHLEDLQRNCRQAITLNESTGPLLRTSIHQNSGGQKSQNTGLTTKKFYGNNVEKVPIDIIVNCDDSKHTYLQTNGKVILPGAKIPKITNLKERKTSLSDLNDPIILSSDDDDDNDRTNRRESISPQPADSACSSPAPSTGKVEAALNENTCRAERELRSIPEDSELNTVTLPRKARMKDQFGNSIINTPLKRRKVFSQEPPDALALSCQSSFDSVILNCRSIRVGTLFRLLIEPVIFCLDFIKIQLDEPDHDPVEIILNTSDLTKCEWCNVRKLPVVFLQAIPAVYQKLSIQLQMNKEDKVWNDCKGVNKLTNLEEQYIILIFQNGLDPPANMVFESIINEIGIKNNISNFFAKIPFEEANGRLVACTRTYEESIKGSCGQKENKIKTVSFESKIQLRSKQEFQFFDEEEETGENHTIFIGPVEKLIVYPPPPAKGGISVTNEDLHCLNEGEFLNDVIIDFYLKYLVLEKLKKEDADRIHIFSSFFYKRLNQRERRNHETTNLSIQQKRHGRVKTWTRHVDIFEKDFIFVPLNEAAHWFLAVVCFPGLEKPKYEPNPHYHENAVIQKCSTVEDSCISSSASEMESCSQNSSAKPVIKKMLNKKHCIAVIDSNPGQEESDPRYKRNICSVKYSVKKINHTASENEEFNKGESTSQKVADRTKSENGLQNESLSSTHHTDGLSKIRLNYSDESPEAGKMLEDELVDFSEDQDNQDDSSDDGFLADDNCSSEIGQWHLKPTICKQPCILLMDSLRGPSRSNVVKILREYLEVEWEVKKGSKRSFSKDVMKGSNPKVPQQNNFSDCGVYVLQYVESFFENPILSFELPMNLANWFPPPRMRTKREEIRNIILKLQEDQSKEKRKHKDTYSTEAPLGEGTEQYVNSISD

[5] = tested on: Streptococcus sp. 'group A'; test: Streptococcus pyogenes SK(-)GAS viability under kanamycin – luminescence, BacTiterGlo, confirmation, counter-screen for streptokinase expression inhibitor project, dose response (AID 1900); format: functional, organism-based
[6] = tested on: Streptococcus; test: GAS UMAA2166 growth inhibition – luminescence, BacTiterGlo, counter-screen for streptokinase expression inhibitor project, dose response (AID 1915); format: functional, organism-based;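 further: potency for reduction of bacterial viability or growth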
[7] = target: T4, Streptokinase A (Streptococcus pyogenes serotype M1, UniProt P10520); test: viability-normalized secreted streptokinase activity reduction – plasminogen activation absorbance, OD405, dose response (AID 1914); format: functional, Streptococcus pyogenes M1 GAS;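 further: secreted streptokinase activity via plasminogen activation per viability signal from cell pellet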
T4 sequence (P10520 whole entry): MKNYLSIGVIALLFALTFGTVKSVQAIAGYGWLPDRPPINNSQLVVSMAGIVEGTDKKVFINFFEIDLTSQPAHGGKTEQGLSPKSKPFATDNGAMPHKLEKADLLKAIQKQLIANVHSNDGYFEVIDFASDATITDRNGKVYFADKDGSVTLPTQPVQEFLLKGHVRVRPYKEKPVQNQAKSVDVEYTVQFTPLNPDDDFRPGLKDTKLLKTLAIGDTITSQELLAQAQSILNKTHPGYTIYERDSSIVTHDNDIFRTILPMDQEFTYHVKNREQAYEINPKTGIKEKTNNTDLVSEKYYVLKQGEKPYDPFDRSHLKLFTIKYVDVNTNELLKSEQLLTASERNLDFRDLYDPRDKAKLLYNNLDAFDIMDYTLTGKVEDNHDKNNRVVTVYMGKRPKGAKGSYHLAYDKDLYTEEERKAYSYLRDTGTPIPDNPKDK

SMILES	AC50 [1]	AC50 [2]	IC50 [3]	IC50 [4]	EC50 [5]	EC50 [6]	EC50 [7]
O=C1C(Cl)=C(NCc2cccnc2)C(=O)c2ccccc21	7.26 µM (active)	4.75 µM (active)	–	–	–	–	–
Nc1ccc(Br)c2cccnc12	–	–	10 µM (active)	7.46 µM (active)	–	–	–
CN(C)c1ncc(C2=C(Cl)C(=O)C(N3CCCC3)=C(Cl)C2=O)s1	–	> 380 µM (inactive)	–	–	24.5 µM (active)	135 µM (active)	> 150 µM (not active)
Cc1ccc(C(=O)c2c(C)oc3c2C(=O)C(=O)c2ccccc2-3)cc1	2.4 µM (active)	–	7.82 µM (active)	4.76 µM (active)	0.566 µM (active)	13.6 µM (active)	> 150 µM (not active)
Cc1cnc(NC(=O)c2sc3ccccc3c2Cl)s1	–	–	2.56 µM (active)	> 100 µM (inactive)	–	–	–
O=C1C(O)=C/C(=N\c2ccccc2O)c2ccccc21	3.26 µM (active)	27.4 µM (active)	5.23 µM (active)	2.95 µM (active)	3.4 µM (active)	> 150 µM (not active)	132 µM (active)
Cc1ccc(Nc2cc(C)nn2-c2nc(C)cc(O)n2)cc1	0.6 µM (active)	13.6 µM (active)	–	–	< 0.06 µM (active)	0.065 µM (active)	–
